From ChEMBL document CHEMBL1143865, “Pyrazinoindolone inhibitors of MAPKAP-K2” (Bioorg Med Chem Lett, 2008)
Blank lines part the entries; values can stand above or below the compound they belong to. Activity calls are given as the source filed them. No cut-off for these calls is given here.

Columns and labels:
[1] = Solubility at pH 7.4; assay type: physicochemical; conditions: buffer
[2] = AUC (0 to infinity) in BALB/c mouse at 0.5 mg/kg, iv; assay type: ADME, organism-based; parameters: time infinity, dose 0.5 mg/kg, route intravenous; conditions: plasma
Mus musculus [3] = test: Clearance in BALB/c mouse at 0.5 mg/kg, iv expressed as %Q; assay type: ADME, organism-based; parameters: dose 0.5 mg/kg, route intravenous; conditions: in vivo
[4] = Oral bioavailability in BALB/c mouse at 1.0 mg/kg; assay type: ADME, organism-based; conditions: in vivo
[5] = Cmax in BALB/c mouse at 1.0 mg/kg, po; assay type: ADME, organism-based; parameters: dose 1 mg/kg, route oral; conditions: in vivo
[6] = AUC (0 to infinity) in BALB/c mouse at 1.0 mg/kg, po; assay type: ADME, organism-based; parameters: time infinity, dose 1 mg/kg, route oral; conditions: plasma
[7] = Mean retention time in BALB/c mouse at 0.5 mg/kg, iv; assay type: ADME, organism-based; parameters: dose 0.5 mg/kg, route intravenous; conditions: in vivo
[8] = target: MAP kinase-activated protein kinase 2 (Homo sapiens, UniProt P49137)
Chain of MAP kinase-activated protein kinase 2 (P49137 whole entry): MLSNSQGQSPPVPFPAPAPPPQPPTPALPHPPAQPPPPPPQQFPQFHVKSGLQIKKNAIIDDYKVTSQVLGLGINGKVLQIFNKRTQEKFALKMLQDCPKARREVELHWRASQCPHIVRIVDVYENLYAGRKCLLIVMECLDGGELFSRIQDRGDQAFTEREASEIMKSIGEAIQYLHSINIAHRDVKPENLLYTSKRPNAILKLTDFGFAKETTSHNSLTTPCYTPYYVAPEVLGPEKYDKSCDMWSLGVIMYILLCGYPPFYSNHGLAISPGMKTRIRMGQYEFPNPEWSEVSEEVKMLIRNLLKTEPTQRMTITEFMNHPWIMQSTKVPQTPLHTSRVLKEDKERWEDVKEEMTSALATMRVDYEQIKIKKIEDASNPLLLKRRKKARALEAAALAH

THP-1 = test: Inhibition of LPS-induced TNFalpha production in human THP1 cells
[9] = Drug level in mouse plasma at 60 mg/kg, po after 90 mins; assay type: ADME, organism-based; parameters: dose 60 mg/kg, route oral
Mus musculus [10] = test: Inhibition of LPS-stimulated TNFalpha production in mouse at 60 mg/kg, po; assay type: functional, organism-based; parameters: dose 60 mg/kg
[11] = target: T1, Lymphokine-activated killer T-cell-originated protein kinase (Homo sapiens) (UniProt Q96KB5); test: Inhibition of PBK at 10 uM
T1 sequence (whole entry): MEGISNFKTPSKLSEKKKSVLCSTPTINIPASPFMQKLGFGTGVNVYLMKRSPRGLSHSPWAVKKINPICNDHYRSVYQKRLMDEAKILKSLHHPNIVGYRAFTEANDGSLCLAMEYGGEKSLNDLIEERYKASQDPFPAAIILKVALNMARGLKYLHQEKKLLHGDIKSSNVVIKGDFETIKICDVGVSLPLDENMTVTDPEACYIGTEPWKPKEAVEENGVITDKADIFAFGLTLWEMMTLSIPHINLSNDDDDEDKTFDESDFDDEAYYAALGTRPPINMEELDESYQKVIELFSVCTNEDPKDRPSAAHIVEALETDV

[12] = target: Rho-associated protein kinase 2 (Homo sapiens) (UniProt O75116); test: Inhibition of ROCK2 at 10 uM
[13] = Inhibition of MNK2alpha at 10 uM
[14] = target: T2, Mitogen-activated protein kinase 15 (Homo sapiens) (UniProt Q8TD08); test: Inhibition of ERK8 at 10 uM
T2 sequence (whole entry): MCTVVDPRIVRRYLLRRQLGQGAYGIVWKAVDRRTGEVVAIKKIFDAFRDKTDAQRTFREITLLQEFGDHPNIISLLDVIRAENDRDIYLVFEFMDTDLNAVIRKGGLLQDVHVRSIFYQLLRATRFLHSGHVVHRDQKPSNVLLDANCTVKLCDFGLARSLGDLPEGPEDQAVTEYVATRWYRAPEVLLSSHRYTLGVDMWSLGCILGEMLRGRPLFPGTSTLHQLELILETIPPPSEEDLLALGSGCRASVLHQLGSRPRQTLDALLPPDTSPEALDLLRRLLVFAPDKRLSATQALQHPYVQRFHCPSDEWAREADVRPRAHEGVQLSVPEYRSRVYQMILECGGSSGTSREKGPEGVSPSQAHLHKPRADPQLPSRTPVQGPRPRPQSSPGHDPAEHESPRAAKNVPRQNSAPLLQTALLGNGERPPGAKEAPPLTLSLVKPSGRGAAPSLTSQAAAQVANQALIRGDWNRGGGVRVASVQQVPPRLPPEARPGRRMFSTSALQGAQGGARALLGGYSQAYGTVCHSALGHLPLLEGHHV

[15] = Inhibition of MAPKAP-K1
[16] = target: Dual specificity tyrosine-phosphorylation-regulated kinase 1A (Homo sapiens) (UniProt Q13627); test: Inhibition of DYRK1A at 10 uM
[17] = target: Serine/threonine-protein kinase Chk2 (Homo sapiens) (UniProt O96017); test: Inhibition of CHK2 at 10 uM
Chain of Serine/threonine-protein kinase Chk2 (Homo sapiens) (O96017 whole entry): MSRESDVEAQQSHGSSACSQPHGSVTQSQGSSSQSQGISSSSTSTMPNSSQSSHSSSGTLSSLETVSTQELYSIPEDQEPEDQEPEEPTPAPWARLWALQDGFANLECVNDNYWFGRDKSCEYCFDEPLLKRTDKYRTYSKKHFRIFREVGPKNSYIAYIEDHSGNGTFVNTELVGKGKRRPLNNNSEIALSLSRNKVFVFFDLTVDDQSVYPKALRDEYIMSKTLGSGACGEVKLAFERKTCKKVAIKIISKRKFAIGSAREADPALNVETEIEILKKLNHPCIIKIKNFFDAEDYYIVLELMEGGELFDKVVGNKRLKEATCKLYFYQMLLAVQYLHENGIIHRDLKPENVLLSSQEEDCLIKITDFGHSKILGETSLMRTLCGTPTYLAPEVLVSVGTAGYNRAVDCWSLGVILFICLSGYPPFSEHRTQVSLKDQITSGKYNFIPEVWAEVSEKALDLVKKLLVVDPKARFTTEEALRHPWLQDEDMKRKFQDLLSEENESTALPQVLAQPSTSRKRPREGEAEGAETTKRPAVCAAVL

[18] = target: Glycogen synthase kinase-3 beta (Homo sapiens, UniProt P49841); test: Inhibition of GSK3-beta
Chain of Glycogen synthase kinase-3 beta (P49841 whole entry): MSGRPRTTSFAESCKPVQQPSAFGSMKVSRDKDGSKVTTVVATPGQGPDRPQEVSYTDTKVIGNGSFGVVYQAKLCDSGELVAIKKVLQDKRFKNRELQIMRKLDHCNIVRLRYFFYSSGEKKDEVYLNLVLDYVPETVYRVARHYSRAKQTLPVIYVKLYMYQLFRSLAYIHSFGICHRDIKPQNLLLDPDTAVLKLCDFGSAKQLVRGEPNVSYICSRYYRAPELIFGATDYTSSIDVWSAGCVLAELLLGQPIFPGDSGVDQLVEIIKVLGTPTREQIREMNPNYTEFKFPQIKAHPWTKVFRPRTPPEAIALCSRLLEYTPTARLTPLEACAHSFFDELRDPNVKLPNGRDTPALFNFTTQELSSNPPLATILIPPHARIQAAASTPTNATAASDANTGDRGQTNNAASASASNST

[19] = target: T3, Serine/threonine-protein kinase 3 (Homo sapiens) (UniProt Q13188); test: Inhibition of MST2 at 10 uM
T3 sequence (whole entry): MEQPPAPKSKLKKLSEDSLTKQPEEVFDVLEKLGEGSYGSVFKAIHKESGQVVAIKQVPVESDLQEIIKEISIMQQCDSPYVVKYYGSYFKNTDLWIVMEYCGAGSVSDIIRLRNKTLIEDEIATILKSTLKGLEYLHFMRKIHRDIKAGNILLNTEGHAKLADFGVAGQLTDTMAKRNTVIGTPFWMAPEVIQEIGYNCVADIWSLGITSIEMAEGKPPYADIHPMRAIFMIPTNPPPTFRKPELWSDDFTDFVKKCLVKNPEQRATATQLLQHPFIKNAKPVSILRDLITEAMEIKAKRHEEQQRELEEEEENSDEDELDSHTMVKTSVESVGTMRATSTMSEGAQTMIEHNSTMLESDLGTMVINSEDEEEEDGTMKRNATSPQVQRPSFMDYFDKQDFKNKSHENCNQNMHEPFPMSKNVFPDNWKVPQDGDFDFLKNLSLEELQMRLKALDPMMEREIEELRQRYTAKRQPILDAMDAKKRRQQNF

[20] = target: Mitogen-activated protein kinase 1 (Homo sapiens, UniProt P28482); test: Inhibition of Erk2
Chain of Mitogen-activated protein kinase 1 (P28482 whole entry): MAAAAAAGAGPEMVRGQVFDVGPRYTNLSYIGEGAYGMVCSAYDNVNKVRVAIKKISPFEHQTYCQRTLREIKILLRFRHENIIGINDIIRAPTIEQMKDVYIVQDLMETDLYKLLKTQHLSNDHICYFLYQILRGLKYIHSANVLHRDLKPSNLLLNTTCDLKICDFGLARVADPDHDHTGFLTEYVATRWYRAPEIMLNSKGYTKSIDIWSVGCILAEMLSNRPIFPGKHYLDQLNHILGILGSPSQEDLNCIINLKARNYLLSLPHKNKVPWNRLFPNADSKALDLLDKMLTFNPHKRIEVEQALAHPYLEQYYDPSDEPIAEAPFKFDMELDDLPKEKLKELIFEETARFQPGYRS

[21] = target: T4, MAP kinase-activated protein kinase 5 (Homo sapiens) (UniProt Q8IW41); test: Inhibition of PRAK at 10 uM
T4 sequence (whole entry): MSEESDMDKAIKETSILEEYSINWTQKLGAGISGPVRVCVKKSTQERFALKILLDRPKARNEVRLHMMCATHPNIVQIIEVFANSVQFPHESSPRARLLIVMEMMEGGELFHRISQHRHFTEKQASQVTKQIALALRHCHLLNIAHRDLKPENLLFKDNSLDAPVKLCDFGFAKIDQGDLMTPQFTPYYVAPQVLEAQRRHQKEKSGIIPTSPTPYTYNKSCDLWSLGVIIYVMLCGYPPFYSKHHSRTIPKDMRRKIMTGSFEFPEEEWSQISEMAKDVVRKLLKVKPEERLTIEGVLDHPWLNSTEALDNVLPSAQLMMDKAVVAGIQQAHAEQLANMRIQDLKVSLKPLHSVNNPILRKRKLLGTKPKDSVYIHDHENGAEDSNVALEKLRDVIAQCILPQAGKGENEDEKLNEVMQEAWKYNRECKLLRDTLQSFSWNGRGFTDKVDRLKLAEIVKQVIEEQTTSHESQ

[22] = target: 3-phosphoinositide-dependent protein kinase 1 (Homo sapiens) (UniProt O15530); test: Inhibition of PDK1 at 10 uM
Chain of 3-phosphoinositide-dependent protein kinase 1 (Homo sapiens) (O15530 whole entry, looked up): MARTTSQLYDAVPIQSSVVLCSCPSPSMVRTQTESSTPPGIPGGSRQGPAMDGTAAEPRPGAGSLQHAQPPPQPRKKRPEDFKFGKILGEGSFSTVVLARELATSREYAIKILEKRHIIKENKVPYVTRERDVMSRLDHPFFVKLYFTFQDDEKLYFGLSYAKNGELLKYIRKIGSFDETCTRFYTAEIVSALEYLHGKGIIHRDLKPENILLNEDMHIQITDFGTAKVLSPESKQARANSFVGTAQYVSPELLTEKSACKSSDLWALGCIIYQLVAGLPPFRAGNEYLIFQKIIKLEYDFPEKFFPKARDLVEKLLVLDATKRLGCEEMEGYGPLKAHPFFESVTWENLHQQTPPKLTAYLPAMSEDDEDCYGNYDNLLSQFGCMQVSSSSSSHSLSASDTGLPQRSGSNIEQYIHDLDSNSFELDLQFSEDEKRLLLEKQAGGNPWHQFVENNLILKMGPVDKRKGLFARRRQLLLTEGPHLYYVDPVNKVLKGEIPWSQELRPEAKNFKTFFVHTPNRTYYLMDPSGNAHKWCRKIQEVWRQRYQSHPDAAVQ

[23] = target: SRSF protein kinase 1 (Homo sapiens) (UniProt Q96SB4); test: Inhibition of SRPK1 at 10 uM
Chain of SRSF protein kinase 1 (Homo sapiens) (Q96SB4 whole entry): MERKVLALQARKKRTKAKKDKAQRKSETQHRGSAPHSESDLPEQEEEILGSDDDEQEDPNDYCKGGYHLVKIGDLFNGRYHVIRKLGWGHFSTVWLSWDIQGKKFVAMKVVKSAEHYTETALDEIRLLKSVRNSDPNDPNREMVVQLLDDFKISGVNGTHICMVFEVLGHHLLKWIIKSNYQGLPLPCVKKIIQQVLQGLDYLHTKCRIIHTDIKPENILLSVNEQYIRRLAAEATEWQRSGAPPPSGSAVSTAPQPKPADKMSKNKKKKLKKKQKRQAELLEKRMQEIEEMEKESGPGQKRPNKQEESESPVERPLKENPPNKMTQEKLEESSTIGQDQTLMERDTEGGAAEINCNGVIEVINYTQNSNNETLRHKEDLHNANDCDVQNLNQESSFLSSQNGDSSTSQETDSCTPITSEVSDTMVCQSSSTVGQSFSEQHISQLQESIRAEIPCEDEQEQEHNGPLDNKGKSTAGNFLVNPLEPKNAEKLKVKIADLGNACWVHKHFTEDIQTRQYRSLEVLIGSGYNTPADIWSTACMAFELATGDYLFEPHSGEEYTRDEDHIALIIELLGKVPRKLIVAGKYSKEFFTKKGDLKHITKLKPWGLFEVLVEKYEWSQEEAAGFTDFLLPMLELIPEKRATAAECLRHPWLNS

[24] = Inhibition of AMPK at 10 uM
[25] = target: Mitogen-activated protein kinase kinase kinase 14 (Homo sapiens, UniProt Q99558); test: Inhibition of NIK
Chain of Mitogen-activated protein kinase kinase kinase 14 (Q99558 whole entry): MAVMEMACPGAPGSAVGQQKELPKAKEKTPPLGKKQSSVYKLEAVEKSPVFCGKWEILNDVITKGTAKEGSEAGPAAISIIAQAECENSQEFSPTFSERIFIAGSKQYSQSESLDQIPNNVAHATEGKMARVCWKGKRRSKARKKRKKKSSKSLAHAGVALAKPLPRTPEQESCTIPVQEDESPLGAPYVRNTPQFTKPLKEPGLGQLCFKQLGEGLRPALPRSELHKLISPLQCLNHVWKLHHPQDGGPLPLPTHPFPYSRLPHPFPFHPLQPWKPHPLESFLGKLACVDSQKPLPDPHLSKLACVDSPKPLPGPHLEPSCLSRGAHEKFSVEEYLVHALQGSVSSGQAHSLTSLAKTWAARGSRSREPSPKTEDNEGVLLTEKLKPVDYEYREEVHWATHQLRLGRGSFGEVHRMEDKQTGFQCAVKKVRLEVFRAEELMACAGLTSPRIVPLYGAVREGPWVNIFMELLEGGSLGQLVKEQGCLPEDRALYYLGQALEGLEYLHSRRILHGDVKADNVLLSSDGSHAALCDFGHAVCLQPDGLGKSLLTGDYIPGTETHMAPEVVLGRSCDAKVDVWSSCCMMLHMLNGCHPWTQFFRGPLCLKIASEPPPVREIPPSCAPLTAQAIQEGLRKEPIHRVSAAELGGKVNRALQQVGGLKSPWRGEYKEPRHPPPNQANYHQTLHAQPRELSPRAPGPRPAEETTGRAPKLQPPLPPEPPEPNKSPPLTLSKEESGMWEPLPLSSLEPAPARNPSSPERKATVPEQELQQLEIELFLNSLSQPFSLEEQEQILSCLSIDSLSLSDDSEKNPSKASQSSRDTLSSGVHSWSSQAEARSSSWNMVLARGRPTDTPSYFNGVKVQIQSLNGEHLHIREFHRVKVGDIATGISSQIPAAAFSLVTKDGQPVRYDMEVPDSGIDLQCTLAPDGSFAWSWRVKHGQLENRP

[26] = target: Dual specificity protein kinase CLK1 (Homo sapiens, UniProt P49759); test: Inhibition of CLK1
Chain of Dual specificity protein kinase CLK1 (P49759 whole entry): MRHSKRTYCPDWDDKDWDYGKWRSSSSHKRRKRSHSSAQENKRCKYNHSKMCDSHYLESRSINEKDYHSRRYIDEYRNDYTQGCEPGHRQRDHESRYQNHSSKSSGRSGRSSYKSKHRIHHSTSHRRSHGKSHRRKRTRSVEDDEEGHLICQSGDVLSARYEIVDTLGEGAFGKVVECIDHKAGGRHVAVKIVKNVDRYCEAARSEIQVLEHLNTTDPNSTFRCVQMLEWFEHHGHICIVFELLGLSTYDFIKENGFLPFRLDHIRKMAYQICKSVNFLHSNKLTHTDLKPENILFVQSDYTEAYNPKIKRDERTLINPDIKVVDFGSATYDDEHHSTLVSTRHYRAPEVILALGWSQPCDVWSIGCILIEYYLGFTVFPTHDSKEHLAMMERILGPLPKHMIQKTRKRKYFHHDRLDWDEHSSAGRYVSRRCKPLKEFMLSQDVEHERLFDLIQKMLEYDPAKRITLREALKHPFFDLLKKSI

SMILES: CC1CNC(=O)c2[nH]c3ccc(C(=O)Nc4nc(C(=O)NC5CCCCC5)cs4)cc3c21 (stereo unspecified)
solubility [1]: < 0.1 µg/mL
AUC(0-inf) [2]: 525 ng·h/mL
CL(%Q) (Mus musculus [3]): 18%
bioavailability [4]: 8%
Cmax [5]: 60 nM
AUC(0-inf) [6]: 88 ng·h/mL
MRT [7]: 0.8 h

SMILES: CC1CCC(NC(=O)c2csc(NC(=O)c3ccc4cc5n(c4c3)C(C)CNC5=O)n2)CC1 (stereo unspecified)
IC50 [8]: 45 nM
IC50 (THP-1): 1800 nM

SMILES: CC1CNC(=O)c2[nH]c3ccc(C(=O)Nc4nc(C(=O)NC5CCN(C)CC5)cs4)cc3c21 (stereo unspecified)
IC50 (THP-1): > 5000 nM

SMILES: CN1CCC(NC(=O)c2csc(NC(=O)c3ccc4cc5n(c4c3)C(C)(C)CNC5=O)n2)CC1
IC50 (THP-1): 2400 nM

SMILES: CC1CNC(=O)c2cc3ccc(C(=O)Nc4nc(C(=O)NC5CCN(C)CC5)cs4)cc3n21 (stereo unspecified)
IC50 (THP-1): > 5000 nM

SMILES: CC1CNC(=O)c2cc3ccc(C(=O)Nc4nc(C(=O)NCC(C)(C)C)cs4)cc3n21 (stereo unspecified)
IC50 [8]: 46 nM
IC50 (THP-1): 2700 nM

SMILES: CC1CNC(=O)c2cc3ccc(C(=O)Nc4nc(C(=O)NC5CCOCC5)cs4)cc3n21 (stereo unspecified)
IC50 [8]: 12 nM
IC50 (THP-1): 5800 nM

SMILES: CCN1CCC(NC(=O)c2csc(NC(=O)c3ccc4cc5n(c4c3)C(C)CNC5=O)n2)CC1 (stereo unspecified)
IC50 [8]: 7 nM
solubility [1]: > 30 µg/mL
IC50 (THP-1): 8900 nM

Further compounds by falling IC50 (THP-1), results first:

IC50 (THP-1): 1700 nM
SMILES: CN1CCC(NC(=O)c2csc(NC(=O)c3ccc4cc5n(c4c3)C3(CCC3)CNC5=O)n2)CC1

solubility [1]: > 30 µg/mL
IC50 (THP-1): 1670 nM
SMILES: CC(C)CN1CCC(NC(=O)c2csc(NC(=O)c3ccc4cc5n(c4c3)C(C)CNC5=O)n2)CC1 (stereo unspecified)

solubility [1]: > 30 µg/mL
IC50 (THP-1): 1600 nM
SMILES: CC1CNC(=O)c2cc3ccc(C(=O)Nc4nc(C(=O)NC5CCN(Cc6ccccc6)CC5)cs4)cc3n21 (stereo unspecified)

IC50 [8]: 20 nM
solubility [1]: < 0.1 µg/mL
AUC(0-inf) [2]: 535 ng·h/mL
CL(%Q) (Mus musculus [3]): 18%
bioavailability [4]: 11%
Cmax [5]: 80 nM
IC50 (THP-1): 1400 nM
AUC(0-inf) [6]: 115 ng·h/mL
MRT [7]: 2 h
SMILES: CC1CNC(=O)c2cc3ccc(C(=O)Nc4nc(C(=O)NC5CCCCC5)cs4)cc3n21 (stereo unspecified)

IC50 [8]: 19 nM
IC50 (THP-1): 1000 nM
SMILES: CC1(C)CNC(=O)c2cc3ccc(C(=O)Nc4nc(C(=O)NC5CCCCC5)cs4)cc3n21

IC50 (THP-1): 900 nM
SMILES: CC1(C)CNC(=O)c2cc3ccc(C(=O)Nc4nc(C(=O)NC5CCN(Cc6ccccc6)CC5)cs4)cc3n21

solubility [1]: > 30 µg/mL
concentration at 1.5 h [9]: 690 nM
IC50 (THP-1): 735 nM
SMILES: CC1CNC(=O)c2cc3ccc(C(=O)Nc4nc(C(=O)NC5CCN(CC(C)(C)C)CC5)cs4)cc3n21 (stereo unspecified)
Activity (Mus musculus [10]): inactive

IC50 (THP-1): 520 nM
SMILES: O=C(Nc1nc(C(=O)NC2CCN(Cc3ccccc3)CC2)cs1)c1ccc2cc3n(c2c1)C1(CCC1)CNC3=O

IC50 (THP-1): 430 nM
SMILES: CC(C)(C)CN1CCC(NC(=O)c2csc(NC(=O)c3ccc4cc5n(c4c3)C(C)(C)CNC5=O)n2)CC1

inhibition [12]: 63%
inhibition [13]: 80%
IC50 [15]: 25 nM
solubility [1]: > 96 µg/mL
AUC(0-inf) [2]: 165 ng·h/mL
inhibition [16]: 94%
inhibition [17]: 84%
CL(%Q) (Mus musculus [3]): 30%
IC50 [18]: 920 nM
inhibition [19]: 86%
bioavailability [4]: > 100%
IC50 [20]: > 3000 nM
inhibition [21]: 98%
inhibition [22]: 92%
inhibition [23]: 60%
Cmax [5]: 60 nM
IC50 (THP-1): 300 nM
AUC(0-inf) [6]: 446 ng·h/mL
inhibition [24]: 98%
MRT [7]: 6.1 h
IC50 [25]: 480 nM
IC50 [26]: 93 nM
SMILES: CC(C)(C)CN1CCC(NC(=O)c2csc(NC(=O)c3ccc4cc5n(c4c3)C3(CCC3)CNC5=O)n2)CC1
inhibition [11]: 75%
inhibition [14]: 82%
